For assay [1], the system named is Bacillus stearothermophilus spores. As to the kind of experiment: Spore outgrowth (color change) of indicators after hydrogen peroxide plasma sterilization. The assay is classed as cell-based. The following applies: 1–22 min diffusion. The protocol:
(§1) Sterilization indicators for Examples 6–9 were prepared as described above with the exception that closure member 22 of the sterilization indicator was constructed of TYVEK™ high-density polyethylene fiber material, commercially available from E.I. du Pont de Nemours and Co., Wilmington, Del.
(§2) Sterilization indicators were made as described above with spores that had been coated with each of the chemicals and concentrations listed in Table 6. The indicators were placed in instrument trays and exposed to a hydrogen peroxide plasma sterilization procedure at 45–55° C. in a STERRAD™ 100SI GMP Sterilizer, obtained from Advanced Sterilization Products Co., Irvine, Calif. During the sterilization procedure a vacuum was drawn in the sterilization chamber for 5–6 minutes until the pressure was reduced to 300 mTorr. A 1.8 ml aliquot of an aqueous solution of 58–60% hydrogen peroxide was then injected into the sterilization chamber over a period of about 6 minutes, yielding an empty chamber concentration of […] hydrogen peroxide, and hydrogen peroxide vapor was allowed to diffuse throughout the chamber for 1–22 minutes at 6–10 Torr. A vacuum was then drawn, reducing the pressure to 500 mTorr and removing all detectable hydrogen peroxide vapor from the chamber.
(§3) After exposure to the sterilization procedure, the indicators were removed from the sterilizer and the inner containers containing the enzyme substrate and nutrient medium were crushed. The indicators were then incubated at 60° C. and examined for fluorescence every hour for 5 hours using a 3M™ ATTEST™ Model 190 Rapid Autoreader, commercially available from 3M Company, St. Paul, Minn. Additionally, spore growth, as indicated by a color change from purple to yellow, was determined visually after 168 hours of incubation.
(§4) The number of growth positive indicators detected after 168 hours of incubation is recorded in Table 6.
as §2, with “7.” for “6.”
as §2, with “8.” for “6.”, “chamber. […]” for “chamber.”

In assay [2] the test system is enzyme associated with Bacillus stearothermophilus spores. Nature of the assay: Rapid enzyme fluorescence readout of indicators after hydrogen peroxide plasma sterilization. The assay is classed as biochemical. As to conditions: for accuracy of sterilization indicators compared to indicators made with untreated spores: 1–3 hours after exposure; for FLUORESCENCE - PERCENT POSITIVE 1 HR / FLUORESCENCE - PERCENT POSITIVE 2 HR / FLUORESCENCE - PERCENT POSITIVE 3 HR / FLUORESCENCE - PERCENT POSITIVE 4 HR / FLUORESCENCE - PERCENT POSITIVE 5 HR: 1–22 min diffusion. The protocol:
as §1, §2, §3, §4
as §2, with “7.” for “6.”
as §2, with “8.” for “6.”, “chamber. […]” for “chamber.”

Assay [3] deals with Bacillus stearothermophilus spores. As to the kind of experiment: Spore outgrowth (color change) of indicators after prevacuum steam sterilization. The assay is classed as cell-based. As to conditions: Example 4, 4-pulse prevacuum steam 121° C., 7–18 min. Put shortly: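 Self-contained indicators held coated spore strips, a polypropylene microfiber barrier and a crushable inner container. That container held peptone, L-alanine, 4-methylumbelliferyl-alpha-D-glucoside and bromocresol purple at pH 7.6. Indicators sat in metal trays in a Getinge sterilizer running pulses of 0.075–0.085 bar vacuum and steam to 1.00 bar at 121° C. Incubation at 60° C followed, and yellow color at 168 hours scored spore outgrowth.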

The subject of assay [4] is enzyme associated with Bacillus stearothermophilus spores. Nature of the assay: Rapid enzyme fluorescence readout of dual rapid readout indicators after prevacuum steam sterilization. It counts as biochemical. The following applies: Example 4, 4-pulse prevacuum steam 121° C., 7–18 min. In a few lines: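 This is a rapid enzyme test in which spore-associated enzyme activity is detected by fluorescence. Spores coated with chemicals were dried on 5×25 mm paper strips for 16 hours at 37° C. They were loaded into indicators that carried 4-methylumbelliferyl-alpha-D-glucoside substrate, with untreated spores serving as controls. After 4-pulse prevacuum steam exposure at 121° C, with vacuum at 0.075–0.085 bar, the substrate ampoules were crushed and the indicators were incubated at 60° C and read with an autoreader.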

Turning to Hexaglyn Di-Stearate, in assay [1] (Example 8, 25 mg/ml coating), the “NO. GROWTH POSITIVE 168 HR” value came to 16. Besides, the “NO. GROWTH POSITIVE 168 HR” value in assay [1] (Example 8, 50 mg/ml coating) is on record as 16. Besides, the “NO. GROWTH POSITIVE 168 HR” value in assay [1] (Example 8, 100 mg/ml coating) worked out at 16. The “accuracy of sterilization indicators compared to indicators made with untreated spores” value in assay [2] is “improved”. In addition, in assay [2] (Example 8, 25 mg/ml coating), the “FLUORESCENCE - PERCENT POSITIVE 1 HR” value worked out at 100%, the “FLUORESCENCE - PERCENT POSITIVE 2 HR” value is recorded as 100%, the “FLUORESCENCE - PERCENT POSITIVE 3 HR” value came to 100% and the “FLUORESCENCE - PERCENT POSITIVE 4 HR” value is 100%. Besides, the “FLUORESCENCE - PERCENT POSITIVE 5 HR” value in assay [2] (Example 8, 25 mg/ml coating) is given as 100%. In assay [2] (Example 8, 50 mg/ml coating), the “FLUORESCENCE - PERCENT POSITIVE 1 HR” value came out at 100%, the “FLUORESCENCE - PERCENT POSITIVE 2 HR” value worked out at 100%, the “FLUORESCENCE - PERCENT POSITIVE 3 HR” value was 100% and the “FLUORESCENCE - PERCENT POSITIVE 4 HR” value is recorded as 100%. In addition, the “FLUORESCENCE - PERCENT POSITIVE 5 HR” value in assay [2] (Example 8, 50 mg/ml coating) amounted to 100%. Also, in assay [2] (Example 8, 100 mg/ml coating), the “FLUORESCENCE - PERCENT POSITIVE 1 HR” value is 100%, the “FLUORESCENCE - PERCENT POSITIVE 2 HR” value was 100%, the “FLUORESCENCE - PERCENT POSITIVE 3 HR” value is 100% and the “FLUORESCENCE - PERCENT POSITIVE 4 HR” value turned out to be 100%. Besides, the “FLUORESCENCE - PERCENT POSITIVE 5 HR” value in assay [2] (Example 8, 100 mg/ml coating) came to 100%.
As for Decaglyceryl Pentaoleate, in assay [3] (50 mg/ml coating), the “NO. GROWTH POSITIVE 168 HR” value is recorded as 16. Besides, in assay [3] (100 mg/ml coating), the “NO. GROWTH POSITIVE 168 HR” value came out at 24. Moreover, in assay [4] (50 mg/ml coating), the “FLUORESCENCE - PERCENT POSITIVE 1 HR” value was 0%, the “FLUORESCENCE - PERCENT POSITIVE 2 HR” value is listed as 0%, the “FLUORESCENCE - PERCENT POSITIVE 3 HR” value is on record as 18.8% and the “FLUORESCENCE - PERCENT POSITIVE 4 HR” value is reported as 31.3%. Also, in assay [4] (100 mg/ml coating), the “FLUORESCENCE - PERCENT POSITIVE 1 HR” value amounted to 12.5%, the “FLUORESCENCE - PERCENT POSITIVE 2 HR” value is given as 25.0%, the “FLUORESCENCE - PERCENT POSITIVE 3 HR” value amounted to 37.5% and the “FLUORESCENCE - PERCENT POSITIVE 4 HR” value is recorded as 45.8%. Besides, the “NO. GROWTH POSITIVE 168 HR” value in assay [1] (Example 6, 50 mg/ml coating) came out at 17. Further, in assay [2], the “accuracy of sterilization indicators compared to indicators made with untreated spores” value is “improved”. In addition, in assay [2] (Example 6, 50 mg/ml coating), the “FLUORESCENCE - PERCENT POSITIVE 1 HR” value is on record as 82.4%, the “FLUORESCENCE - PERCENT POSITIVE 2 HR” value came to 94.1%, the “FLUORESCENCE - PERCENT POSITIVE 3 HR” value is 100% and the “FLUORESCENCE - PERCENT POSITIVE 4 HR” value came out at 100%. The “FLUORESCENCE - PERCENT POSITIVE 5 HR” value in assay [2] (Example 6, 50 mg/ml coating) is 100%.
Alkyl Polyglucoside: in assay [1] (Example 8, 20 mg/ml coating), the “NO. GROWTH POSITIVE 168 HR” value is recorded as 5. In addition, the “NO. GROWTH POSITIVE 168 HR” value in assay [1] (Example 8, 40 mg/ml coating) worked out at 1. In addition, in assay [2] (Example 8, 20 mg/ml coating), the “FLUORESCENCE - PERCENT POSITIVE 1 HR” value was determined as 0%, the “FLUORESCENCE - PERCENT POSITIVE 2 HR” value stood at 0%, the “FLUORESCENCE - PERCENT POSITIVE 3 HR” value came to 0% and the “FLUORESCENCE - PERCENT POSITIVE 4 HR” value came to 0%. For the same substance, in assay [2] (Example 8, 20 mg/ml coating), the “FLUORESCENCE - PERCENT POSITIVE 5 HR” value was determined as 0%. In assay [2] (Example 8, 40 mg/ml coating), the “FLUORESCENCE - PERCENT POSITIVE 1 HR” value is given as 0%, the “FLUORESCENCE - PERCENT POSITIVE 2 HR” value turned out to be 0%, the “FLUORESCENCE - PERCENT POSITIVE 3 HR” value was 0% and the “FLUORESCENCE - PERCENT POSITIVE 4 HR” value is given as 0%. Besides, the “FLUORESCENCE - PERCENT POSITIVE 5 HR” value in assay [2] (Example 8, 40 mg/ml coating) is 0%.

The values are drawn from US7045343B2, “Sterilization indicator test packs” (3M Innovative Properties Company, priority 1998, dated 2006).
